Experiment [1] deals with T1, Mesoderm-specific transcript homolog protein (Homo sapiens) (UniProt Q5EB52).
T1 sequence (whole entry): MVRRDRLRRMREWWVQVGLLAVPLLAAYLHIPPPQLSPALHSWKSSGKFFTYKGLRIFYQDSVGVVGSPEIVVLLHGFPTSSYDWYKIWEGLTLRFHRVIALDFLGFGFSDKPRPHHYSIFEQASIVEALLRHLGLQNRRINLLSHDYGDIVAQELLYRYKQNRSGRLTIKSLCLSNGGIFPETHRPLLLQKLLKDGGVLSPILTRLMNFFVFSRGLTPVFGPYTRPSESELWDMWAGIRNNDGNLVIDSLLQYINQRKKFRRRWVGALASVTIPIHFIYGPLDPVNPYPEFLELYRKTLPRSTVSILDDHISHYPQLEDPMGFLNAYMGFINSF
In words: Inhibition of human recombinant MEST T579B (2 to 335 amino acids) expressed in Sf9 cell membranes assessed as reduction in glycerol 3-phosphate acyltransferase activity at 10 uM using [3H]-glycerol 3-phosphate and palmitoyl CoA incubated for 60 mins by scintillation counting assay relative to control.

In experiment [2] the target is T1, Mesoderm-specific transcript homolog protein (Homo sapiens). In words: Inhibition of human recombinant MEST T579B (2 to 335 amino acids) expressed in Sf9 cell membranes assessed as reduction in glycerol 3-phosphate acyltransferase activity at 3 uM using [3H]-glycerol 3-phosphate and palmitoyl CoA incubated for 60 mins by scintillation counting assay relative to control.

Experiment [3] shares this target. In words: Inhibition of human recombinant MEST T579B (2 to 335 amino acids) expressed in Sf9 cell membranes assessed as reduction in glycerol 3-phosphate acyltransferase activity at 1 uM using [3H]-glycerol 3-phosphate and palmitoyl CoA incubated for 60 mins by scintillation counting assay relative to control.
Experiment [4] shares this target. Kind of experiment: Inhibition of human recombinant MEST T579B (2 to 335 amino acids) expressed in Sf9 cell membranes assessed as reduction in glycerol 3-phosphate acyltransferase activity at 0.3 uM using [3H]-glycerol 3-phosphate and palmitoyl CoA incubated for 60 mins by scintillation counting assay relative to control.
Experiment [5] has the same target. In words: Inhibition of human recombinant MEST T579B (2 to 335 amino acids) expressed in Sf9 cell membranes assessed as reduction in glycerol 3-phosphate acyltransferase activity using [3H]-glycerol 3-phosphate and palmitoyl CoA incubated for 60 mins by scintillation counting assay.
Experiment [6] has the same target. In words: Inhibition of human recombinant MEST T579B (2 to 335 amino acids) expressed in Sf9 cell membranes assessed as reduction in glycerol 3-phosphate acyltransferase activity at 0.1 uM using [3H]-glycerol 3-phosphate and palmitoyl CoA incubated for 60 mins by scintillation counting assay relative to control.
The target is the same in experiment [7]. Kind of experiment: Inhibition of human recombinant MEST T579B (2 to 335 amino acids) expressed in Sf9 cell membranes assessed as reduction in glycerol 3-phosphate acyltransferase activity at 0.03 uM using [3H]-glycerol 3-phosphate and palmitoyl CoA incubated for 60 mins by scintillation counting assay relative to control.
The target in experiment [8] is T2, Glycerol-3-phosphate acyltransferase 1, mitochondrial (Homo sapiens) (UniProt Q9HCL2).
T2 sequence (whole entry): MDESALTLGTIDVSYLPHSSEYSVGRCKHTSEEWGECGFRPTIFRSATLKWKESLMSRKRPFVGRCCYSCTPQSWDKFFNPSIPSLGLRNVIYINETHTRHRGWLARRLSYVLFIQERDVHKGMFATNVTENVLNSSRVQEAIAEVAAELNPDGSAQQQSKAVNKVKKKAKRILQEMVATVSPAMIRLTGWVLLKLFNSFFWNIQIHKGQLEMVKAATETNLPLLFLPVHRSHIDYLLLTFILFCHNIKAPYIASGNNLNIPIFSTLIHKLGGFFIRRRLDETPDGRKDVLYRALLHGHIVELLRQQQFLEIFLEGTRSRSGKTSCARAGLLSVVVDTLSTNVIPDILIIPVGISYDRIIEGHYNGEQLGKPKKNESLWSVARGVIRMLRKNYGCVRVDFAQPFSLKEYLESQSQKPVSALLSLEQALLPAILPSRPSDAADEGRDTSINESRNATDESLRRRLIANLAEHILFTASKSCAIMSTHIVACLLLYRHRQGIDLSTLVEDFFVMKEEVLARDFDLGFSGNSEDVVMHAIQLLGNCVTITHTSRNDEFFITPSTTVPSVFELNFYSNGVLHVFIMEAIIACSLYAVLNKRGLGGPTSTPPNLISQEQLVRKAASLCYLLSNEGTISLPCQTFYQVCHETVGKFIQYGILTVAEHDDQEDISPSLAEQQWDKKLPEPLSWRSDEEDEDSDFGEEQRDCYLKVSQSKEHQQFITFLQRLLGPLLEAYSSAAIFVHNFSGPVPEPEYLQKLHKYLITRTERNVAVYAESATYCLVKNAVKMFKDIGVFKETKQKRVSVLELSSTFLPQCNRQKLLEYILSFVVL
In words: Inhibition of GPAT1 (unknown origin) expressed in Sf9 cell membranes assessed as reduction in glycerol 3-phosphate acyltransferase activity at 10 uM using [3H]-glycerol 3-phosphate and palmitoyl CoA incubated for 60 mins by scintillation counting assay relative to control.

In experiment [9] the target is T2, Glycerol-3-phosphate acyltransferase 1, mitochondrial (Homo sapiens). In words: Inhibition of GPAT1 (unknown origin) expressed in Sf9 cell membranes assessed as reduction in glycerol 3-phosphate acyltransferase activity at 3 uM using [3H]-glycerol 3-phosphate and palmitoyl CoA incubated for 60 mins by scintillation counting assay relative to control.
Experiment [10] shares this target. Kind of experiment: Inhibition of GPAT1 (unknown origin) expressed in Sf9 cell membranes assessed as reduction in glycerol 3-phosphate acyltransferase activity at 1 uM using [3H]-glycerol 3-phosphate and palmitoyl CoA incubated for 60 mins by scintillation counting assay relative to control.
For experiment [11] the target is unchanged. Kind of experiment: Inhibition of GPAT1 (unknown origin) expressed in Sf9 cell membranes assessed as reduction in glycerol 3-phosphate acyltransferase activity at 0.3 uM using [3H]-glycerol 3-phosphate and palmitoyl CoA incubated for 60 mins by scintillation counting assay relative to control.
The target is the same in experiment [12]. Kind of experiment: Inhibition of GPAT1 (unknown origin) expressed in Sf9 cell membranes assessed as reduction in glycerol 3-phosphate acyltransferase activity at 0.1 uM using [3H]-glycerol 3-phosphate and palmitoyl CoA incubated for 60 mins by scintillation counting assay relative to control.
For experiment [13] the target is unchanged. Kind of experiment: Inhibition of GPAT1 (unknown origin) expressed in Sf9 cell membranes assessed as reduction in glycerol 3-phosphate acyltransferase activity at 0.03 uM using [3H]-glycerol 3-phosphate and palmitoyl CoA incubated for 60 mins by scintillation counting assay relative to control.
Experiment [14] deals with T3, Glycerol-3-phosphate acyltransferase 3 (Homo sapiens) (UniProt Q53EU6).
T3 sequence (whole entry): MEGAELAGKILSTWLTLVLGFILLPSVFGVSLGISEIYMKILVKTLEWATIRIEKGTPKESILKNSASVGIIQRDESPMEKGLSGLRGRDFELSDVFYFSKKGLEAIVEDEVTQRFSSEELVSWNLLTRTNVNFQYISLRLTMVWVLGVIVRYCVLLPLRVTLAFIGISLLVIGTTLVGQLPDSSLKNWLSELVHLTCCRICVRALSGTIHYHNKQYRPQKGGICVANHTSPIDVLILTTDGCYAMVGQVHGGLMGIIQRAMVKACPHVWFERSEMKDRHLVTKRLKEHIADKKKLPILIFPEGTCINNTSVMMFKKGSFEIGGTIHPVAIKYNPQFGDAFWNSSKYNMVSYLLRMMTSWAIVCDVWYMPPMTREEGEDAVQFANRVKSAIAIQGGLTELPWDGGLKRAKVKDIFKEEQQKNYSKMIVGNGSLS
In words: Inhibition of GPAT3 (unknown origin) expressed in Sf9 cell membranes assessed as reduction in glycerol 3-phosphate acyltransferase activity at 10 uM using [3H]-glycerol 3-phosphate and palmitoyl CoA incubated for 60 mins by scintillation counting assay relative to control.

The target in experiment [15] is T3, Glycerol-3-phosphate acyltransferase 3 (Homo sapiens). In words: Inhibition of GPAT3 (unknown origin) expressed in Sf9 cell membranes assessed as reduction in glycerol 3-phosphate acyltransferase activity at 3 uM using [3H]-glycerol 3-phosphate and palmitoyl CoA incubated for 60 mins by scintillation counting assay relative to control.

`O=C(CO)COP(=O)(O)O`: the inhibition (usually the drop in the measured response relative to a control, in per cent) in experiment [1] is 69%; in experiment [2] it was 51%; in experiment [3], 27%; in experiment [4], 24%; in [5] it was “Dose-dependent effect”; in [6], -6%. Further, the inhibition in [7] was -5%; in [8], 72%; in experiment [9] it was 47%; in [10] it was 29%; in experiment [11] it was 11%; in experiment [12], 10%. In addition, the inhibition in [13] is 4%; in [14] it was 57%; in experiment [15], 38%.

Values taken from ChEMBL document CHEMBL4482303, “Test system for measuring mest activity as well as methods and uses involving the same” (2012).
